In assay [1] the target is T1, guinea pig right atria (Cavia porcellus, UniProt H0W3H1).
T1 construct: from tissue; host or cells: guinea pig right atria (isolated, spontaneously beating)
In words: Beta blocking activity in vitro, guinea pig right atria (isoproterenol-induced rate change). To be noted: guinea pig right atria, vs isoproterenol, 60-minute incubation; read-out: pA2 value in the atria (converted). As for the experimental part: (§1) Compounds of the present invention are tested for β-blocking activity in vitro using guinea pig right atria and guinea pig tracheal strips mounted in a tissue bath containing oxygenated (95% O2 -5% CO2) Krebs physiological salt solution at 37° C. Each tissue is suspended between a fixed glass rod and a Statham Universal Transducer connected to a Beckman recorder. Atria were allowed to beat spontaneously under a loading tension of approximately 0.5 gm. Intrinsic depressant or stimulant activity is determined for each compound by progressively increasing concentrations in the tissue baths at 60-minute intervals. Tissues are not washed between increments. The maximum concentration showing little or no cardiodepressant activity is chosen for blockade experiments. Changes in rate in response to isoproterenol, a standard β-receptor agonist, is measured in the absence and presence of test compounds. Spiral strips of guinea pig trachea are suspended under 5 gm resting tension and incubated with phentolamine, tropolone and cocaine. Active tension is generated by addition of carbachol (3.0×10^-7 M) and decreases in tension in response to isoproterenol are quantitated. Cumulative concentration-response curves are produced with isoproterenol both before and after 60-minute incubation of test compounds with atria and trachea. […]

In assay [2] the test system is guinea pig right atria. The description is as above. To be noted: ratio greater than one indicates cardioselectivity. The method, then: as §1
Assay [3] deals with β-blockade of isoproterenol heart rate response. Kind of assay: Duration of beta-blocking action in vivo, anesthetized dogs. To be noted: pentobarbital-anesthetized dogs, after 3-hour infusion, isoproterenol 0.5 μg/kg bolus. Also noted: species or system dog. As for the experimental part: The duration of β-blockade is determined In vivo using pentobarbital-anesthetized dogs instrumented for measurement of heart rate using a Beckman cardiotachometer triggered electronically by a phasic aortic blood pressure signal. Both vagus nerves are severed in the cervical region and the animals are mechanically ventilated. The experimental design used employs a 3-hour infusion of test compound. Bolus doses of isoproterenol (0.5 μg/kg) are used to assess the degree of β-blockade and recovery from β-blockade after […] of the infusion. The doses are spaced at 10-minute intervals and are given before, during and following the infusion of test compounds. The infusion rate is adjusted so that at the end of the 3-hour infusion period the degree of isoproterenol inhibition averaged about 50% of control. Following termination of blocker infusion, percent recovery from β-blockade is computed and the time associated with 80% recovery estimated.

Assay [4] concerns the target T2, guinea pig tracheal strips (Cavia porcellus, UniProt Q8K4Z4).
T2 construct: from tissue; host or cells: guinea pig tracheal spiral strips
Kind of assay: Beta blocking activity in vitro, guinea pig tracheal strips (isoproterenol-induced relaxation). Particulars: carbachol tension, vs isoproterenol, 60-minute incubation, read-out: pA2 value in the trachea (converted). As for the experimental part:
as §1

T2 sequence (Q8K4Z4 whole entry): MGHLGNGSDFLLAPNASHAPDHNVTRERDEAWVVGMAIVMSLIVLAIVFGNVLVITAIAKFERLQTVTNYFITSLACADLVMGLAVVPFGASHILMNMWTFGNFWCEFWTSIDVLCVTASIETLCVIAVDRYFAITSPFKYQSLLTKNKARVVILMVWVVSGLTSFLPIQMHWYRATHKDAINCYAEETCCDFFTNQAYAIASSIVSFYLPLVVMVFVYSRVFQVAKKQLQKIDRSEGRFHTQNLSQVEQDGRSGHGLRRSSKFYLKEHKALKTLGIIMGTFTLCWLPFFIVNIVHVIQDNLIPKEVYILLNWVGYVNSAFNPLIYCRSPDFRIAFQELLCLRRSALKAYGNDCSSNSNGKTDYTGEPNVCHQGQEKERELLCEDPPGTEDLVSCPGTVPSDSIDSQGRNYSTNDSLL
T1 sequence (H0W3H1 1-470): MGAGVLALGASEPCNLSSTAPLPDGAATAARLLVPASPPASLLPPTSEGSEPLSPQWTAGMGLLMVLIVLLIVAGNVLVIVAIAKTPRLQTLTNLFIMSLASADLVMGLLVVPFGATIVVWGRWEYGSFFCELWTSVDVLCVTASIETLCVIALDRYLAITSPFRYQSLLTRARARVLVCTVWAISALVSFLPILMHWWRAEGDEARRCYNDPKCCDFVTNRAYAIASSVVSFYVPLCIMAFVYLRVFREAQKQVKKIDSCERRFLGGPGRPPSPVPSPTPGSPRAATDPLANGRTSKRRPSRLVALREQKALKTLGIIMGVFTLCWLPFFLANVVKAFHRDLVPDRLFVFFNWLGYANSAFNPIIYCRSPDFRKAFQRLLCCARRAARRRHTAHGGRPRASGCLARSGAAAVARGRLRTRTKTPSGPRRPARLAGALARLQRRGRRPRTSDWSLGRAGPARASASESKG

In the case of `COC(=O)c1ccccc1OCC(O)CNCCNc1ccc([N+](=O)[O-])cn1` (stereo not shown) [Example I, Methyl 2[2-Hydroxy-3-[2-[2-(5-nitropyridinyl)amino]ethyl]aminopropoxy benzoate], the Kb was 31.6 nM at guinea pig right atria [1] and 79.4 nM in assay [4]. Also, the “cardioselectivity (ratio KB trachea/KB atria)” value in the assay with guinea pig right atria [2] is given as 2.5. Also, the “in vivo duration of action (time to 80% recovery from β-blockade)” value in assay [3] is 15 ± 6 min.

These data come from patent publication US4556668A, “Ethylenediamine derivatives of aryloxypropanolamine aryl esters having various medicinal properties” (American Hospital Supply Corporation, priority 1983, dated 1985).
